molecular target: T1, ENaC (Epithelial Sodium Channel) (Mus musculus, UniProt Q61180+Q9WU38+Q9WU39); assay: Ussing Chamber assay (short circuit current, amiloride sensitive I_SC); type: cell-based; settings: Ussing chamber, mouse kidney M-1 cells, short circuit current, compound added to the apical solution; read-out: IC50
T1 construct: Mouse kidney M−1 cells were cultivated in DMEM; endogenous in cells; host or cells: Mouse kidney M-1 cells, cultivated with dexamethasone on transwell filters
T1 sequence (Q61180 1-699): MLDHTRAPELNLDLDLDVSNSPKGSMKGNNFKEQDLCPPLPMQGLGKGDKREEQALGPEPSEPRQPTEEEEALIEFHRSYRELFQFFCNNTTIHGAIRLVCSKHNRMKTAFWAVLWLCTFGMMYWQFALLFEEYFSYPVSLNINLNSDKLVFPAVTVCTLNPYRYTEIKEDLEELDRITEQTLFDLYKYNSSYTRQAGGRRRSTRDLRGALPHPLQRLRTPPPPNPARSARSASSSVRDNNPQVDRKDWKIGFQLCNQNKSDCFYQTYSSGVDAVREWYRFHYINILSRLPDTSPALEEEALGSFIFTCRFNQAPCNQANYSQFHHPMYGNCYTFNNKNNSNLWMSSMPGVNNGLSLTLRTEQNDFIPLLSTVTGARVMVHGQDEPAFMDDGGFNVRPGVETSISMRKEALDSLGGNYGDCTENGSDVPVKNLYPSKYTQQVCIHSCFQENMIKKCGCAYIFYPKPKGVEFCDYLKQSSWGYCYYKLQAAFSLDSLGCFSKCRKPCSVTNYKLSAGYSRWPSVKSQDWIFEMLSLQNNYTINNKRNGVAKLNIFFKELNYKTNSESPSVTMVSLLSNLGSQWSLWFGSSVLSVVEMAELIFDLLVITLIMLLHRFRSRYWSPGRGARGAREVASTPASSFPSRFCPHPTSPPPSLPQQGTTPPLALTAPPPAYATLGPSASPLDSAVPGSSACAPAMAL
T1 sequence (Q9WU38 1-638): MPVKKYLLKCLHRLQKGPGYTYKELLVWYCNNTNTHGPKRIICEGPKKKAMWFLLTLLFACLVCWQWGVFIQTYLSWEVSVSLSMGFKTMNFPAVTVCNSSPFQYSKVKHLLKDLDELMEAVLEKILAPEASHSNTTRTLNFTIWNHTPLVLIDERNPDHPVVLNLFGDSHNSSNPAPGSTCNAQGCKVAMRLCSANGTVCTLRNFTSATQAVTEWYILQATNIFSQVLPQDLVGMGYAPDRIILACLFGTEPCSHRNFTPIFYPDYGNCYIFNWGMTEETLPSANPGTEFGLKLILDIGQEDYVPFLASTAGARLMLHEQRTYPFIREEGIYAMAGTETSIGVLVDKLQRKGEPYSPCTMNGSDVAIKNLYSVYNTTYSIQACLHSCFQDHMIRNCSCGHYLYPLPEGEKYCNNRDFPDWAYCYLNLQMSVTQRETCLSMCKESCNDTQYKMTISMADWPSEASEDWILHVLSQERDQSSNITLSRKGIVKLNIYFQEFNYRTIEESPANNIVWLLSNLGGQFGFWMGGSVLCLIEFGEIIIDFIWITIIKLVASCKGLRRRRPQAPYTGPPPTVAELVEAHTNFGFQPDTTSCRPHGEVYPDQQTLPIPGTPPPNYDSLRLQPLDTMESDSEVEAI
T1 sequence (Q9WU39 1-655): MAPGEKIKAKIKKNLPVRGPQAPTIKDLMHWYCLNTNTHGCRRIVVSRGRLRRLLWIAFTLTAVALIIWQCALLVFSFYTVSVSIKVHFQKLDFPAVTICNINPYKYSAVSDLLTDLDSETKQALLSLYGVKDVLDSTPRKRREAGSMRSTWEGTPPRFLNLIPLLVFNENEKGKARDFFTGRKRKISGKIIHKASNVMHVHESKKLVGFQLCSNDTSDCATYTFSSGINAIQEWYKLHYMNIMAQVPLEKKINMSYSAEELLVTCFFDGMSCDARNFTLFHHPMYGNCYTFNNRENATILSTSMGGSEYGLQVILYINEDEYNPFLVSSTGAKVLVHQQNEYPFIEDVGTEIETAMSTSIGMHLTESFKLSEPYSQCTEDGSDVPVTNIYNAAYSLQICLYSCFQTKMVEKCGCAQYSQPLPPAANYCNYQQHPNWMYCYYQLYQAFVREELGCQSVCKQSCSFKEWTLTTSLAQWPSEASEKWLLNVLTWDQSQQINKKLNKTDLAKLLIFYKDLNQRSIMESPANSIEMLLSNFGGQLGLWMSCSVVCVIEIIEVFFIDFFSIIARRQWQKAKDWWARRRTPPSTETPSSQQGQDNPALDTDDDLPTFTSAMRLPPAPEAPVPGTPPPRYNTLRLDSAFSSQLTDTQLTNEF
Experimental: The IC50 values of the example compounds given above were determined in the Ussing Chamber assay.
Ussing Chamber: Mouse kidney M−1 cells were cultivated in DMEM containing 5% FCS and 5 μM dexamethasone for 10 to 12 days on polyester transwell filters. Filters were inserted into a teflon-coated well-plate which fit into the ussing chamber system. Prior to measurement the medium of M−1 cells was replaced with Caco-2 transport buffer (Invitrogen, Germany). During measurements, the Ussing chamber temperature was kept at 37° C. Short circuit currents (I_sc) were measured in the voltage-clamp mode with the software package Lab View for data acquisition and analysis. The transepithelial electrical resistance (TEER) was determined by the application of voltage steps of ±5 mV every 5 sec. Compounds were administered at a final concentration of 3 μM or at increasing concentrations (1-3-10 μM) to the apical solution. At the end of each experiment the amiloride sensitive I_SC was measured by adding 3 μM amiloride to the apical compartment. Results are expressed as inhibition in percent of the amiloride effect or as IC50.

| SMILES | IC50 |
| --- | --- |
| COc1ccc(CCC[N+]2(CCCc3ccc(OC)cc3)CCC(NC(=O)c3nc(Cl)c(N)nc3N)C2)cc1 (stereo not drawn) [Example 1.1] | 0.03 µM |
| COc1ccc(CCC[N+]2(CCCc3ccc(OC)cc3)CC(NC(=O)c3nc(Cl)c(N)nc3N)[C@H](c3ccc(C)cc3)C2)cc1 (stereo partly drawn) [Example 1.2] | 0.2 µM |
| COc1ccc(CCC[N+]2(CCCc3ccc(OC)cc3)CCCCC(NC(=O)c3nc(Cl)c(N)nc3N)C2)cc1 (stereo not drawn) [Example 1.3] | 0.044 µM |
| COc1ccc(CCC[N+]2(CCCc3ccc(OC)cc3)CCC[C@H](NC(=O)c3nc(Cl)c(N)nc3N)C2)cc1 [Example 1.4] | 0.004 µM |
| COc1ccc(CCC[N+]2(CCCc3ccc(OC)cc3)CCC[C@@H](NC(=O)c3nc(Cl)c(N)nc3N)C2)cc1 [Example 1.5] | 0.038 µM |

Results, then the molecule that gave them:

| IC50 | SMILES |
| --- | --- |
| 0.009 µM | Nc1nc(N)c(C(=O)N[C@H]2CCC[N+](CCCc3ccc(OCC(=O)NCCn4ccnc4)cc3)(CCCc3ccc(OCC(=O)NCCn4ccnc4)cc3)C2)nc1Cl [6.15] |
| 0.08 µM | COc1ccc(CCC[N+](C)(CCCc2ccc(OC)cc2)[C@@H]2C[C@H]2NC(=O)c2nc(Cl)c(N)nc2N)cc1 [Example 2.1] |
| 0.13 µM | COc1ccc(CCC[N+](C)(CCCc2ccc(OC)cc2)C[C@H](C)NC(=O)c2nc(Cl)c(N)nc2N)cc1 [Example 2.2] |
| 0.51 µM | COc1ccc(CCC[N+](C)(CCCc2ccc(OC)cc2)CC(C)(C)NC(=O)c2nc(Cl)c(N)nc2N)cc1 [Example 2.3] |
| 0.75 µM | COc1ccc(CCC[N@+]2(C)CCC[C@H](NC(=O)c3nc(Cl)c(N)nc3N)C2)cc1 [Example 3.1] |
| 0.07 µM | COc1ccc(CCC[N@@+]2(C)CCC[C@H](NC(=O)c3nc(Cl)c(N)nc3N)C2)cc1 [Example 3.2] |
| 0.099 µM | COc1ccc(CCC[N+]2(CCCC3CCCCC3)CCCC(NC(=O)c3nc(Cl)c(N)nc3N)C2)cc1 (stereo not drawn) [Example 3.3] |
| 0.034 µM | COc1ccc(CCC[N+]2(CCCCc3ccccc3)CCCC(NC(=O)c3nc(Cl)c(N)nc3N)C2)cc1 (stereo not drawn) [Example 3.4] |
| 0.006 µM | COc1ccc(CCC[N+]2(CCCc3ccccc3)CCCC(NC(=O)c3nc(Cl)c(N)nc3N)C2)cc1 (stereo not drawn) [Example 3.5] |
| 0.06 µM | COc1ccc(CCC[N+]2(CCc3ccccc3)CCCC(NC(=O)c3nc(Cl)c(N)nc3N)C2)cc1 (stereo not drawn) [Example 3.6] |
| 0.14 µM | COc1ccc(CCC[N+]2(Cc3ccccc3)CCCC(NC(=O)c3nc(Cl)c(N)nc3N)C2)cc1 (stereo not drawn) [Example 3.7] |
| 0.6 µM | COc1ccc(CCC[N+]2(C)CC(NC(=O)c3nc(Cl)c(N)nc3N)[C@H](c3ccc(C)cc3)C2)cc1 (stereo partly drawn) [Example 3.8] |

same assay, conditions: Ussing chamber, mouse kidney M-1 cells, short circuit current; unit inferred; read-out: IC50

| IC50 | SMILES |
| --- | --- |
| 0.03 µM | COc1ccc(CCC[N+](C)(CCCc2ccc(OC)cc2)CC(NC(=O)c2nc(Cl)c(N)nc2N)c2ccccc2)cc1 (stereo not drawn) [Example 2, {2-[(3,5-Diamino-6-chloro-pyrazine-2-carbonyl)-amino]-2-phenyl-ethyl}-bis-[3-(4-methoxy-phenyl)-propyl]-methyl-ammonium chloride] |

same assay, conditions: Ussing chamber, mouse kidney M-1 cells, short circuit current; value printed in the example text with μM; read-out: IC50

| IC50 | SMILES |
| --- | --- |
| 0.79 µM | COc1ccc(CCC[N+]2(C)CCC(NC(=O)c3nc(Cl)c(N)nc3N)C2)cc1 (stereo not drawn) [Example 3, 3-[(3,5-Diamino-6-chloro-pyrazine-2-carbonyl)-amino]-1-[3-(4-methoxy-phenyl)-propyl]-1-methyl-pyrrolidinium chloride] |
| 0.34 µM | COC(=O)c1ccc(CCC[N+]2(CCCc3ccc(C(=O)OC)cc3)CCCC(NC(=O)c3nc(Cl)c(N)nc3N)C2)cc1 (stereo not drawn) [Example 4, 3-[(3,5-Diamino-6-chloro-pyrazine-2-carbonyl)-amino]-1,1-bis-[3-(4-methoxycarbonylphenyl)-propyl]-piperidinium chloride] |
| 0.35 µM | Nc1nc(N)c(C(=O)NC2CCC[N+](CCCc3ccc(C(=O)[O-])cc3)(CCCc3ccc(C(=O)O)cc3)C2)nc1Cl (stereo not drawn) [Example 4.1, 1,1-Bis-[3-(4-carboxy-phenyl)-propyl]-3-[(3,5-diamino-6-chloro-pyrazine-2-carbonyl)amino]-piperidinium] |
